According to patent publication US20050203013A1, “Methods for inhibiting vascular permeability” (priority 2002, published 2005):
Where two headings read alike, the source gives them in different places.

Assays:
[1] = test system: vesiculo-vacuolar organelles and inter-endothelial junctions; assay: Electron microscopy of skin venules with ferritin tracer; assay type: in vivo, SCID mice; details: uninjected skin or skin injected with buffer
Experimental: SCID mice were treated for three days with TNP-470 (30 mg/kg) or saline, following which anionic Ferritin tracer was injected i.v. into mice and 50 μl of human VEGF165 (1 ng/μl), or 50 μl of PBS were injected intradermally into pre-shaved flank skin. After 15 min, animals were euthanized by cervical dislocation. Skin test and control sites were excised and fixed by immersion for 4 hours in freshly prepared 2.0% paraformaldehyde-2.5% glutaraldehyde-0.025% calcium chloride in 0.1 M sodium cacodylate buffer, pH 7.4. Tissues were postfixed for 2 h in 1.5% sym-collidine-buffered osmium tetroxide, stained en bloc with uranyl acetate, dehydrated in a graded series of alcohols, and embedded in Spurr resin as previously described (Dvorak et al., 1996; Feng et al., 1996). Thin sections were then cut, collected on carbon-Formvar-coated single slot grids, and viewed in an electron microscope (CM10; Philips, Eindhoven, The Netherlands).

[2] = test system: A2058 human melanoma tumor vessel permeability; assay: Miles assay on tumor-bearing mice (Example 2); assay type: in vivo, SCID mice; details: 30 mg/kg/day for three days
Experimental: One of the problems with angiogenesis-dependent diseases is increased vessel permeability (due to high levels of VPF) which results in edema and loss of proteins. A decrease in vessel permeability is beneficial in those diseases. We have found, using the Miles assay ([…], et al., Cancer Res, 56:172-181 (1996)), that free and bound TNP-470 block permeability. Briefly, a dye, Evans Blue (1% in PBS), was injected i.v. to anesthesized mice. After 10 min, human recombinant VEGF165 (50 ng/50 μl) was injected intradermally into the back skin. Leakage of protein-bound dye was detected as blue spots on the underside of the back skin surrounding the injection site. After 20 min mice were euthanized. Then, the skin was excised, left in formamide for 5 days to be extracted and the solution read at 620 nm. Putative angiogenesis inhibitors such as free and conjugated TNP-470 were injected daily 3 days (30 mg/kg/day) prior to the VEGF challenge. The same was repeated on tumor-bearing mice to evaluate the effect of angiogenesis inhibitors on tumor vessel permeability.

U87 glioblastoma cells = assay: Cell proliferation assay, U87; assay type: cell-based, human; details: 72 hours
Experimental: HMVEC-d cells were trypsinized (0.05% trypsin) and resuspended (15,000 cells/ml) in EBM-2 supplemented with 5% fetal bovine serum (FBS), plated onto gelatinized 24-well culture plates (0.5 ml/well), and incubated for 24 hours (37° C., 5% CO2). The media was replaced with 0.5 ml of complete media (serum and growth factors; EGM-2 MV), and test substances were applied. Cells were challenged with free or conjugated TNP-470 (0.01 pg/ml to 1 mg/ml TNP-470-equivalent concentration). Control cells were grown with or without growth factors. U87 glioblastoma cells were washed with PBS, trypsinized and resuspended (5,000 cells/ml) in DMEM supplemented with 10% FBS, plated onto 24-well culture plates (0.5 ml/well), and incubated for 24 hours (37° C., 5% CO2). The media was replaced with 0.5 ml of DMEM and 10% FBS, and the test sample applied. Cells were challenged with free or conjugated TNP-470 (0.01 pg/ml to 1 mg/ml TNP-470-equivalent concentration). Control cells were grown with or without 10% FBS. Both cell types were incubated for 72 hours, followed by trypsinization, resuspension in Hematall (Fisher Scientific, Pittsburgh, Pa.), and counted in a Coulter counter.

skin vessel permeability = assay: Miles vascular permeability assay (Example 3); assay type: in vivo, SCID mice
Experimental: SCID mice were injected subcutaneously (s.c.) with TNP-470 or HPMA copolymer-TNP-470 (30 mg/Kg TNP-equiv.) for three days, with Y27632 (50 nM s.c.) for 11 days, with angiostatin (200 mg/kg/day s.c.) for five days, or with saline (250 μl s.c.) for 5 days (n=12) prior to performing the Miles assay ([…] et al., 1996; Miles and Miles, 1952; Streit et al., 2000). Briefly, Evan's blue dye (100 μl of a 1% solution in 0.9% NaCl) was injected intravenously (i.v.) into mice. After 10 minutes, 50 μl of human VEGF165 (1 ng/μl), PAF (100 μM), CNF-1 (100 ng), histamine (1.2 μg/ml) or PBS (50 ul) were injected intradermally into the pre-shaved back skin. After 20 minutes, the animals were euthanized and an area of skin that included the blue spot resulting from leakage of the dye was removed. Evan's blue dye was extracted from the skin by incubation with formamide for 5 days at room temperature, and the absorbance of extracted dye was measured at 620 nm using a spectrophotometer. The unpaired Student t test was used for statistical analysis.

VEGFR-2 = VEGFR-2 phosphorylation in HMVEC-d; assay type: cell-based, Human; details: 5 ng/ml for 2 hours
Experimental: Serum-starved (0.1% FBS in EBM-2 media for 24 hours) HMVEC-d or HUVEC were treated with 5 ng/ml TNP-470 and HPMA copolymer-TNP-470 at 37° C. for 2 hours, and then stimulated with 10 ng/ml of VEGF for 5 minutes. Stimulation was stopped by adding cold PBS. […] After washing the beads with precipitation buffer, immunoprecipitates were resuspended in 2× SDS sample buffer for Western blot analysis with an antibody against phosphorylated tyrosine (pTyr).

[3] = test system: LLC, A2058, MCF-7, MDA-MB-231, BXPC3, U87 tumors; details: cited from earlier work
liver regeneration = assay: Liver regeneration after 2/3 hepatectomy; assay type: in vivo, C57 black male mice; details: post-operative day 8
Experimental: C57 black male mice underwent a ⅔ hepatectomy through a midline incision after general anesthesia with isoflourane. Free and conjugated TNP-470 (30 mg/kg) was given s.c. every other day for 8 days beginning on the day of surgery. The liver was harvested on the 8th day, weighed and analyzed for histology.

## CO[C@@H]1[C@H](OC(=O)NC(=O)CCl)CC[C@]2(CO2)[C@H]1[C@@]1(C)O[C@@H]1CC=C(C)C [TNP-470]
[1]
  extravasation of circulating ferritin via VVOs: reduced
[2]
  tumor vessel permeability: decreased
U87 glioblastoma cells; U87 glioblastoma cells
  concentration inhibiting serum-induced proliferation (cytostatic effect): higher than 10 ng/ml
U87 glioblastoma cells; U87 tumor cells
  cytotoxic concentration: higher than 100 μg/ml
Skin vessel permeability; CNF-1 intradermal
  CNF-1-induced Evan's blue-albumin extravasation: inhibited
Skin vessel permeability; PAF intradermal
  decrease of PAF-induced permeability: 75%
Skin vessel permeability; PBS intradermal
  low-level permeability induced by intradermal injections of PBS: blocked
Skin vessel permeability; VPF/VEGF intradermal
  inhibition of Evan's blue dye extravasation from VPF/VEGF injection sites: ~70%
Skin vessel permeability; histamine intradermal
  decrease of histamine-induced permeability: 80%
VEGFR-2
  VPF/VEGF-induced phosphorylation of VEGFR-2: significantly reduced
[3]; U87 glioblastoma in mice
  tumor growth inhibition: 95%
[3]; all tumor models studied
  tumor growth inhibition: 60-95%
Liver regeneration
  average liver size: 0.7 g
